Source: patent publication US12077503B2, “Substituted cyclic amides and their use as herbicides” (FMC CORPORATION, priority 2015, dated 2024)

Tests used:
Type in all cases: in vivo
Kochia (Kochia scoparia) [1] = assay: Test A preemergence; conditions: Bassia scoparia, pre-emergence, 240 h; for pest or weed control at 125 g/ha: 125 g ai/ha, preemergence, 0 to 100 scale where 0 is no effect and 100 is complete control, read-out: Kochia plant response rating; for pest or weed control at 500 g/ha: 500 g ai/ha, Preemergence, visual injury vs untreated controls after approximately 10 d, read-out: Kochia plant response rating (0 to 100 scale where 0 is no effect and 100 is complete control)
In short: (§1)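 Preemergence soil spray on seeded pots or post-emergence spray on 1–2 leaf plants, in loam–sand blend. Greenhouse ~10 d. Visual rating 0–100 against untreated plants.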

[2] = test system: pigweed (Amaranthus retroflexus); assay: Test A preemergence; conditions: Amaranthus retroflexus, pre-emergence, 240 h; for pest or weed control at 125 g/ha: 125 g ai/ha, preemergence, 0 to 100 scale where 0 is no effect and 100 is complete control, read-out: Pigweed plant response rating; for pest or weed control at 500 g/ha: 500 g ai/ha, Preemergence, visual injury vs untreated controls after approximately 10 d, read-out: Pigweed plant response rating (0 to 100 scale where 0 is no effect and 100 is complete control)
[3] = test system: ragweed (common ragweed, Ambrosia elatior); assay: Test A preemergence; conditions: Ambrosia artemisiifolia, pre-emergence, 240 h; for pest or weed control at 125 g/ha: 125 g ai/ha, preemergence, 0 to 100 scale where 0 is no effect and 100 is complete control, read-out: Ragweed plant response rating; for pest or weed control at 500 g/ha: 500 g ai/ha, Preemergence, visual injury vs untreated controls after approximately 10 d, read-out: Ragweed plant response rating (0 to 100 scale where 0 is no effect and 100 is complete control)
In short: as §1

[4] = test system: ryegrass, Italian (Italian ryegrass, Lolium multiflorum); assay: Test A preemergence; conditions: Lolium multiflorum, pre-emergence, 240 h; for pest or weed control at 125 g/ha: 125 g ai/ha, preemergence, 0 to 100 scale where 0 is no effect and 100 is complete control, read-out: Ryegrass, Italian plant response rating; for pest or weed control at 500 g/ha: 500 g ai/ha, Preemergence, visual injury vs untreated controls after approximately 10 d, read-out: Ryegrass, Italian plant response rating (0 to 100 scale where 0 is no effect and 100 is complete control)
In short: as §1

[5] = test system: barnyardgrass (Echinochloa crus-galli); assay: Test A preemergence; conditions: Echinochloa crus-galli, pre-emergence, 240 h; for pest or weed control at 125 g/ha: 125 g ai/ha, preemergence, 0 to 100 scale where 0 is no effect and 100 is complete control, read-out: Barnyardgrass plant response rating; for pest or weed control at 500 g/ha: 500 g ai/ha, Preemergence, visual injury vs untreated controls after approximately 10 d, read-out: Barnyardgrass plant response rating (0 to 100 scale where 0 is no effect and 100 is complete control)
In short: as §1

[6] = test system: giant foxtail (Setaria faberii); assay: Test A preemergence; conditions: Setaria faberi, pre-emergence, 240 h; for pest or weed control at 125 g/ha: 125 g ai/ha, preemergence, 0 to 100 scale where 0 is no effect and 100 is complete control, read-out: Foxtail, Giant plant response rating; for pest or weed control at 500 g/ha: 500 g ai/ha, Preemergence, visual injury vs untreated controls after approximately 10 d, read-out: Foxtail, Giant plant response rating (0 to 100 scale where 0 is no effect and 100 is complete control)
In short: as §1

[7] = test system: wheat (Triticum aestivum); assay: Test A postemergence; conditions: Triticum aestivum, post-emergence, 240 h, 125 g ai/ha, postemergence, visual injury rating after approximately 10 d; read-out: Wheat plant response rating (0 to 100 scale, 0 no effect, 100 complete control)
In short: as §1

Kochia (Kochia scoparia) [8] = assay: Test A postemergence; conditions: Bassia scoparia, post-emergence, 240 h, 125 g ai/ha, postemergence, visual injury rating after approximately 10 d; read-out: Kochia plant response rating (0 to 100 scale, 0 no effect, 100 complete control)
In short: as §1

[9] = test system: pigweed (Amaranthus retroflexus); assay: Test A postemergence; conditions: Amaranthus retroflexus, post-emergence, 240 h, 125 g ai/ha, postemergence, visual injury rating after approximately 10 d; read-out: Pigweed plant response rating (0 to 100 scale, 0 no effect, 100 complete control)
In short: as §1

[10] = test system: blackgrass (Alopecurus myosuroides); assay: Test A postemergence; conditions: Alopecurus myosuroides, post-emergence, 240 h, 125 g ai/ha, postemergence, visual injury rating after approximately 10 d; read-out: Blackgrass plant response rating (0 to 100 scale, 0 no effect, 100 complete control)
In short: as §1

[11] = test system: ryegrass, Italian (Italian ryegrass, Lolium multiflorum); assay: Test A postemergence; conditions: Lolium multiflorum, post-emergence, 240 h, 125 g ai/ha, postemergence, visual injury rating after approximately 10 d; read-out: Ryegrass, Italian plant response rating (0 to 100 scale, 0 no effect, 100 complete control)
In short: as §1

[12] = test system: barnyardgrass (Echinochloa crus-galli); assay: Test A postemergence; conditions: Echinochloa crus-galli, post-emergence, 240 h, 125 g ai/ha, postemergence, visual injury rating after approximately 10 d; read-out: Barnyardgrass plant response rating (0 to 100 scale, 0 no effect, 100 complete control)
In short: as §1

corn (Zea mays) = assay: Test A postemergence; conditions: Zea mays, post-emergence, 240 h, 125 g ai/ha, postemergence, visual injury rating after approximately 10 d; read-out: Corn plant response rating (0 to 100 scale, 0 no effect, 100 complete control)
In short: as §1

[13] = test system: Galium (catchweed bedstraw, Galium aparine); assay: Test A postemergence; conditions: Galium, post-emergence, 240 h, 125 g ai/ha, postemergence, visual injury rating after approximately 10 d; read-out: Galium plant response rating (0 to 100 scale, 0 no effect, 100 complete control)
In short: as §1

[14] = test system: giant foxtail (Setaria faberii); assay: Test A postemergence; conditions: Setaria faberi, post-emergence, 240 h, 125 g ai/ha, postemergence, visual injury rating after approximately 10 d; read-out: Foxtail, Giant plant response rating (0 to 100 scale, 0 no effect, 100 complete control)
In short: as §1

SMILES: O=C1NC[C@H](c2ccc(F)c(OC(F)(F)C(F)(F)Br)c2)[C@H]1C(=O)Nc1cccc(F)c1F (racemic) [Compound 914]
- pest or weed control at 125 g/ha (Kochia (Kochia scoparia) [1]): 60%
- pest or weed control at 500 g/ha (Kochia (Kochia scoparia) [1]): 60%
- pest or weed control at 125 g/ha [2]: 90%
- pest or weed control at 500 g/ha [2]: 90%
- pest or weed control at 125 g/ha [3]: 0%
- pest or weed control at 500 g/ha [3]: 0%
- pest or weed control at 125 g/ha [4]: 0%
- pest or weed control at 500 g/ha [4]: 60%
- pest or weed control at 125 g/ha [5]: 70%
- pest or weed control at 500 g/ha [5]: 90%
- pest or weed control at 125 g/ha [6]: 90%
- pest or weed control at 500 g/ha [6]: 90%
- plant injury at 125 g/ha [7]: 0%
- pest or weed control at 125 g/ha (Kochia (Kochia scoparia) [8]): 70%
- pest or weed control at 125 g/ha [9]: 80%
- pest or weed control at 125 g/ha [10]: 0%
- pest or weed control at 125 g/ha [11]: 0%
- pest or weed control at 125 g/ha [12]: 0%
- plant injury at 125 g/ha (corn (Zea mays)): 0%
- pest or weed control at 125 g/ha [13]: 60%
- pest or weed control at 125 g/ha [14]: 70%

SMILES: CS(=O)(=O)c1ccccc1NC(=O)[C@H]1C(=O)NC[C@@H]1c1cc(F)c(C(F)(F)F)c(F)c1 [Compound 839]
- pest or weed control at 125 g/ha (Kochia (Kochia scoparia) [1]): 90%
- pest or weed control at 500 g/ha (Kochia (Kochia scoparia) [1]): 90%
- pest or weed control at 125 g/ha [2]: 90%
- pest or weed control at 500 g/ha [2]: 90%
- pest or weed control at 125 g/ha [3]: 80%
- pest or weed control at 500 g/ha [3]: 90%
- pest or weed control at 125 g/ha [4]: 0%
- pest or weed control at 500 g/ha [4]: 40%
- pest or weed control at 125 g/ha [5]: 80%
- pest or weed control at 500 g/ha [5]: 90%
- pest or weed control at 125 g/ha [6]: 90%
- pest or weed control at 500 g/ha [6]: 90%
- plant injury at 125 g/ha [7]: 50%
- pest or weed control at 125 g/ha (Kochia (Kochia scoparia) [8]): 70%
- pest or weed control at 125 g/ha [9]: 80%
- pest or weed control at 125 g/ha [11]: 50%
- pest or weed control at 125 g/ha [12]: 60%
- plant injury at 125 g/ha (corn (Zea mays)): 30%
- pest or weed control at 125 g/ha [13]: 80%
- pest or weed control at 125 g/ha [14]: 60%
